Laboratory results: patent US20100311661A1, “USE OF COMPOUNDS DERIVED FROM CYCLOHEXIMIDE FOR THE TREATMENT OR PREVENTION OF, IN PARTICULAR, ISCHAEMIAS AND CARDIOPATHIES” (Max Planck Gesellschaft Zur Forderung Der Wissenschaften …, priority 2007, published 2010)

Experiments:
[1] = test system: Hearts of 9-week-old male rats; parameters: species or system rats (Sprague-Dawley)
adult cardiomyocytes = assay: Adult cardiomyocytes under hypoxia and subsequent reoxygenation; apoptosis by Guava ViaCount assay; settings: 18 hours hypoxia, 24 hours normoxic; DM-CHX greater than 1 μM; p<0.05
retinal ganglion cells = settings: in vivo; cited from earlier work
liver cells of rats = settings: cited from earlier work
brain lesions = settings: photothrombotic in vivo model in rats; cited from earlier work

Structure (SMILES) | size of the infarct, qualitative (TTC colouring, visual) [1] | influence on apoptosis (adult cardiomyocytes) | cell death caused by axotomy (retinal ganglion cells) | protection against cell death (liver cells of rats) | brain lesions triggered by radiation (brain lesions)
C[C@@H]1C[C@@H]([C@H](O)CC2CC(=O)N(CC(=O)N(C)C)C(=O)C2)C(=O)[C@@H](C)C1 [DM-CHX] | serious difference in colouring | statistically significant influence | – | – | –
CC1CC(C)C(=O)C(C(O)CC2CC(=O)NC(=O)C2)C1 (centres unmarked) [CHX, 4-[2-(3,5-dimethyl-2-oxocyclohexyl)-2-hydroxy-ethyl]-2,6-piperidindione] | – | – | inhibits cell death caused by axotomy | protective property of CHX against cell death has also been demonstrated | reduces brain lesions
